From patent publication US20220378676A1, “COMPOSITION FOR ENHANCING SKIN ELASTICITY OR IMPROVING SKIN WRINKLES” (AMOREPACIFIC CORPORATION, priority 2021, published 2022)

Experiments:
collagen = experiment: Collagen expression in particulate matter-treated fibroblasts (western blotting); type: cell-based; details: human-derived fibroblasts, PM2.5, 100 μM, 24 hours
[1] = test system: RPE/Smo-GFP primary cilia model cells; experiment: Assessment of primary ciliary activation (confocal microscopy); type: cell-based, human; details: 20 μM, 100 μM, 24 hours, vs control group
Procedure: In order to confirm the primary cilia activation effect of 2-isopropylmalic acid, RPE/Smo-GFP, primary cilia model cells, was prepared. Specifically, human telomerase-immortalized retinal pigmented epithelial (RPE) cells (ATCC Inc.) were transformed with Smo-GFP plasmid (Addgene Inc.) to prepare RPE/Smo-GFP. After treating RPE/Smo-GFP with 2-isopropylmalic acid (Sigma Aldrich Inc.) at different concentrations (20 μM, 100 μM) for 24 hours, the primary cilia production rate and primary cilia length were measured by confocal microscopy (LSM510; Carl Zeiss Microimaging Inc., Thornwood, N.Y.) and the results were shown in FIGS. 2 and 3. The production rate of primary cilia was expressed as the ratio of the number of cells having primary cilia to the total number of cells as a percentage, and the length of primary cilia was a measure of the actual length of all cilia observed under a microscope. As a positive control, SAG (SMO agonist, Calbiochem Inc.), which was a primary cilia production promoting substance, was used.

c-Jun = c-Jun phosphorylation in particulate matter-treated fibroblasts (western blotting); type: cell-based; details: human-derived fibroblasts, PM2.5, 100 μM, 24 hours; effect similar to SP600125
Procedure: Human-derived fibroblasts (LONZA Inc.) were treated with particulate matter (PM2.5). Then, after treatment with 100 μM of 2-isopropylmalic acid for 24 hours, cell lysate was made, protein was quantified, and the same amount of protein was separated by electrophoresis, and c-Jun, p-c-Jun (phosphorylated c-Jun) was performed by western blotting.

MMP-1 [2] = experiment: Inhibition of MMP-1 expression in an artificial skin model (immunocytochemistry, image analysis); type: cell-based; details: full-thickness human 3D-skin model, PM2.5 100 ug/mL, 50 uM, 100 uM, 48 hours
Procedure: The effect of 2-IPMA on the skin was evaluated using a full-thickness human three-dimensional (3-D)-skin model. The full-thickness human 3D-skin model was fabricated in the following way. An artificial dermal layer was formed by loading a mixture of collagen (Nutragen, Advanced Biomatrix Inc.) and fibroblasts (NDFn, ThermoFisher Inc.) in a volume of 400 ul in Transwell® (Corning Inc.). Thereafter, a fibroblast culture medium (M106, Gibco Inc.) was put on the artificial dermal layer and cultured for 7 days to stabilize the artificial dermal layer. Next, keratinocytes (HEKn, ThermoFisher Inc.) were seeded on the artificial dermal layer, and cultured in keratinocyte culture medium (EpiLife, Gibco Inc.) for 1 day, followed by epidermal layer production medium (CnT-3DPR, CellnTEC) for 1 day, and then cultured in the same epidermal layer production medium for 10 days in a state of exposure to air to form an artificial epidermal layer, thereby constructing a full-thickness human 3D-skin model. 100 ug/mL of particulate matter (PM2.5) and 2-isopropylmalic acid (50 uM, 100 uM) were treated in the full-thickness human three-dimensional skin model constructed in this way for 48 hours. Thereafter, hematoxylin-eosin (H&E) staining and MMP-1 immunocytochemistry were performed, and the results were shown in FIG. 10.

IL-6 = IL-6 expression in particulate matter-treated fibroblasts (ELISA); type: cell-based; details: human-derived fibroblasts, PM2.5 50 ug/mL, 100 μM, 24 hours
Procedure: (§1) Human-derived fibroblasts (LONZA Inc.) were transfected with siRNA for IFT88 (siIFT88) or scrambled siRNA (SC), respectively, and then were treated with 50 ug/mL of particulate matter (PM2.5) and 100 μM of 2-isopropylmalic acid for 24 hours. Thereafter, the expression levels of IL-6 and TNF-α, which were inflammatory cytokines, were measured in culture conditions by ELISA assay, and the results were shown in FIG. 9.

MMP-1 [3] = experiment: MMP-1 expression in particulate matter-treated fibroblasts (western blotting); type: cell-based; details: human-derived fibroblasts, PM2.5, 100 μM, 24 hours
[4] = test system: RPE/Smo-GFP primary cilia model cells; experiment: Assessment of activation of primary cilia inhibited by particulate matter (PM2.5); type: cell-based, human; details: PM2.5 50 ug/ml, 100 μM, 24 hours
Procedure: Particulate matter (PM2.5) was treated in RPE/Smo-GFP, which was the primary cilia model cells of Experimental Example 2. Specifically, particulate matter was directly collected in the air (37.34° N, 127.27° E, 167 m above sea level) using a Teflon filter (Teflon filter, Zefluor, Pall Life Science, Ann Arbor, Mich., USA). Then, this was treated at a concentration of 50 ug/ml in the cell culture medium. Thereafter, after treatment with 100 μM of 2-isopropylmalic acid for 24 hours, the fluorescence of Smo-GFP was visually observed using a fluorescence microscope, and then the production rate and length of primary cilia were measured and shown in FIGS. 4 and 5. The production rate of primary cilia was expressed as the ratio of the number of cells having primary cilia to the total number of cells as a percentage, and the length of primary cilia was a measure of the actual length of all cilia observed under a microscope. As a positive control, SAG (SMO agonist, Calbiochem Inc.), which was a primary cilia production promoting substance, was used.

TNF-α = TNF-α expression in particulate matter-treated fibroblasts (ELISA); type: cell-based; details: human-derived fibroblasts, PM2.5 50 ug/mL, 100 μM, 24 hours
Procedure: as §1

CC(C)C(O)(CC(=O)O)C(=O)O (stereo not shown) [2-isopropylmalic acid]
collagen expression (collagen): increased | length of primary cilia [1]: increased | proportion of cells with primary cilia (production rate of primary cilia) [1]: statistically significantly higher than that of the control group | phosphorylation of c-Jun by particulate matter (c-Jun): suppressed | expression of MMP-1 increased by the particulate matter (MMP-1 [2]): decreased | expression of IL-6 increased by particulate matter (IL-6): reduced | MMP-1 expression (MMP-1 [3]): decreased | length of primary cilia [4]: getting longer | production of primary cilia suppressed by particulate matter [4]: restored | expression of TNF-α increased by particulate matter (TNF-α): reduced
